Several values for one entry are separate records, joined by “and”; a condition that tells them apart may be missing. Identical values can stand only once.
Tests used:
[1] = Liquid, Vibrating tube method
[2] = xn = mol fraction of the nth substance listed; details: Liquid, Vibrating tube method, x1 = 1

CCCO [propan-1-ol]
mass density [kg/m3], [1]
Details | 100 kPa | 5000 kPa | 10000 kPa | 15000 kPa | 20000 kPa
283.15 K | 810.9 | 814.7 | 818.1 | 821.7 | 824.9
298.15 K | 799 | 803 | 806.9 | 810.6 | 814.1
313.15 K | 786.8 | 791.2 | 795.3 | 799.3 | 803.1
328.15 K | 774.5 | 779.1 | 783.7 | 787.8 | 791.9

CCO [ethanol] + C=CC(C)(O)CCC=C(C)C
mass density [kg/m3], [2]
Details | 100 kPa | 5000 kPa | 10000 kPa | 15000 kPa | 20000 kPa
283.15 K | 797.7 | 801.8 | 805.6 | 809.6 | 813.1
298.15 K | 784.9 | 789.3 | 793.6 | 797.7 | 801.6
313.15 K | 771.9 | 776.8 | 781.3 | 785.7 | 789.9
328.15 K | 758.6 | 763.8 | 768.9 | 773.6 | 778.1

CC(C)O [propan-2-ol] + C=CC(C)(O)CCC=C(C)C
mass density [kg/m3], [2]
Details | 283.15 K | 283.18 K | 298.15 K | 313.15 K | 328.15 K | 328.18 K
100 kPa | 793.7 | – | 781.2 | 768.1 | 754.4 | –
5000 kPa | 797.5 | – | 785.5 | 773 | 759.6 | –
10000 kPa | 801.3 | – | 789.7 | 777.5 | – | 764.8
15000 kPa | – | 805.2 | 793.8 | 781.9 | 769.5 | –
20000 kPa | 808.9 | – | 797.6 | 786.1 | 774 | –

C=CC(C)(O)CCC=C(C)C (configuration not stated) [3,7-dimethyl-1,6-octadien-3-ol]
mass density, [1]
Details | 283.15 K | 283.18 K | 298.15 K | 313.15 K | 328.15 K | 328.18 K
100 kPa | 869.2 kg/m3 and 869.5 kg/m3 | – | 856.9 kg/m3 and 857.3 kg/m3 | 844.1 kg/m3 and 844.5 kg/m3 | 831.3 kg/m3 and 831.7 kg/m3 | –
5000 kPa | 872.3 kg/m3 and 872.6 kg/m3 | – | 860.1 kg/m3 and 860.6 kg/m3 | 847.8 kg/m3 and 848.2 kg/m3 | 835.2 kg/m3 and 835.6 kg/m3 | –
10000 kPa | 875.2 kg/m3 and 875.7 kg/m3 | – | 863.5 kg/m3 and 863.9 kg/m3 | 851.3 kg/m3 and 851.6 kg/m3 | 839.1 kg/m3 and 839.5 kg/m3 | 839.5 kg/m3
15000 kPa | 878.2 kg/m3 and 878.7 kg/m3 | 878.7 kg/m3 | 866.6 kg/m3 and 867 kg/m3 | 854.8 kg/m3 and 855 kg/m3 | 842.7 kg/m3 and 843.1 kg/m3 | –
20000 kPa | 881 kg/m3 and 881.5 kg/m3 | – | 869.6 kg/m3 and 870 kg/m3 | 858.1 kg/m3 and 858.4 kg/m3 | 846.3 kg/m3 and 846.7 kg/m3 | –

CC(C)O [propan-2-ol]
mass density [kg/m3], [1]
Details | 283.15 K | 283.18 K | 298.15 K | 313.15 K | 328.15 K | 328.18 K
100 kPa | 793.7 | – | 781.2 | 768.1 | 754.4 | –
5000 kPa | 797.5 | – | 785.5 | 773 | 759.6 | –
10000 kPa | 801.3 | – | 789.7 | 777.5 | – | 764.8
15000 kPa | – | 805.2 | 793.8 | 781.9 | 769.5 | –
20000 kPa | 808.9 | – | 797.6 | 786.1 | 774 | –

CCCO [propan-1-ol] + C=CC(C)(O)CCC=C(C)C
mass density [kg/m3], [2]
Details | 100 kPa | 5000 kPa | 10000 kPa | 15000 kPa | 20000 kPa
283.15 K | 810.9 | 814.7 | 818.1 | 821.7 | 824.9
298.15 K | 799 | 803 | 806.9 | 810.6 | 814.1
313.15 K | 786.8 | 791.2 | 795.3 | 799.3 | 803.1
328.15 K | 774.5 | 779.1 | 783.7 | 787.8 | 791.9

CCO [ethanol]
mass density [kg/m3], [1]
Details | 100 kPa | 5000 kPa | 10000 kPa | 15000 kPa | 20000 kPa
283.15 K | 797.7 | 801.8 | 805.6 | 809.6 | 813.1
298.15 K | 784.9 | 789.3 | 793.6 | 797.7 | 801.6
313.15 K | 771.9 | 776.8 | 781.3 | 785.7 | 789.9
328.15 K | 758.6 | 763.8 | 768.9 | 773.6 | 778.1

From the NIST ThermoML archive (doi:10.1021/je100581m)
